By EC50 is commonly meant the concentration giving half of the maximal effect.

The structures appear in SMILES notation. Some results are limits rather than exact numbers.

The test system of the first assay is T-47D. In words: Caspase cascade activation assay (N-(Ac-DEVD)-N'-ethoxycarbonyl-R110 fluorogenic substrate) in T-47D cells. The format is cell-based, Human. The settings on record: 24 h incubation, ratio of net RFU (T=3 h) to that of control samples, 0.16 to 10 μM final. As for the experimental part: Human breast cancer cell lines T-47D was grown according to media component mixtures designated by American Type Culture Collection+10% FCS (mvitrogen Corporation), in a 5% CO2-95% humidity incubator at 37° C. T-47D and ZR-75-1 cells were maintained at a cell density between 30 and 80% confluency and for HL-60 at a cell density of 0.1 to 0.6×10^6 cells/mL. Cells were harvested at 600×g and resuspended at 0.65×10^6 cells/mL into appropriate media+10% FCS. An aliquot of 45 μL of cells was added to a well of a 96-well microtiter plate containing 5 μL of a 10% DMSO in RPMI-1640 media solution containing 1.6 to 100 μM of 1,3-dimethyl-N-(4-methoxyphenyl)-1H-pyrazolo[3,4-b]quinolin-4-amine or other test compound (0.16 to 10 μM final). An aliquot of 45 μL of cells was added to a well of a 96-well microtiter plate containing 5 μL of a 10% DMSO in RPMI-1640 media solution without test compound as the control sample. The samples were mixed by agitation and then incubated at 37° C. for 24 h in a 5% CO2-95% humidity incubator. After incubation, the samples were removed from the incubator and 50 μL of a solution containing 20 μM of N-(Ac-DEVD)-N′-ethoxycarbonyl-R110 fluorogenic substrate (SEQ ID NO:1) (Cytovia, Inc.; U.S. Pat. No. 6,335,429), 20% sucrose (Sigma), 20 mM DTT (Sigma), 200 mM NaCl (Sigma), 40 mM Na PIPES buffer pH 7.2 (Sigma), and 500 μg/mL lysolecithin (Calbiochem) was added. The samples were mixed by agitation and incubated at room temperature. Using a fluorescent plate reader (Model 1420 Wallac Instruments), an initial reading (T=0) was made about 1-2 min after addition of the substrate solution, employing excitation at 485 nm and emission at 530 nm, to determine the background fluorescence of the control sample. After about 3 h of incubation, the samples were read for fluorescence as above (T=3 h).
The Relative Fluorescence Unit values (RFU) were used to calculate the sample readings as follows: RFU(T=3h)−Control RFU(T=0)=Net RFU(T=3h)
The activity of caspase cascade activation was determined by the ratio of the net RFU value for 1,3-dimethyl-N-(4-methoxyphenyl)-1H-pyrazolo[3,4-b]quinolin-4-amine to that of control samples. The EC50 (nM) was determined by a sigmoidal dose-response calculation (Prism 2.0, GraphPad Software Inc.).
In the case of `CC(=O)c1cccc(Nc2c3ccccc3nc3c2c(C)nn3C)c1` [Example 5, N-(3-Acetylphenyl)-1,3-dimethyl-1H-pyrazolo[3,4-b]quinolin-4-amine], the “Caspase Activity Ratio” value stood at 1.0.

As for `Cc1nn(C)c2nc3ccccc3c(Nc3ccc(C(N)=O)cc3)c12` [Example 6, N-(4-Carbamoylphenyl)-1,3-dimethyl-1H-pyrazolo[3,4-b]quinolin-4-amine], the “Caspase Activity Ratio” value is 1.0.

With `COc1ccc(Nc2c3ccccc3nc3c2c(C)nn3C)cn1` [Example 7, 1,3-Dimethyl-N-(6-methoxypyridin-3-yl)-1H-pyrazolo[3,4-b]quinolin-4-amine], the “Caspase Activity Ratio” value came out at 1.0.

`COc1cccc(Nc2c3ccccc3nc3c2c(C)nn3C)c1` [Example 8, 1,3-Dimethyl-N-(3-methoxyphenyl)-1H-pyrazolo[3,4-b]quinolin-4-amine]: the “Caspase Activity Ratio” value worked out at 3.9.

As to `COc1ccc(Sc2c3ccccc3nc3c2c(C)nn3C)cc1` [Example 12, 4-(4-Methoxyphenylthio)-1,3-dimethyl-1H-pyrazolo[3,4-b]quinoline], the “Caspase Activity Ratio” value is 9.3.

For the molecule `CC(=O)c1ccc(Oc2c3ccccc3nc3c2c(C)nn3C)cc1` [Example 13, 4-(4-Acetylphenoxy)-1,3-dimethyl-1H-pyrazolo[3,4-b]quinoline], the “Caspase Activity Ratio” value is listed as 7.5.

Regarding `CC(C)C(=O)c1cccc(N(C)c2c3c(nc4ccccc24)CCC3)c1` [Example 16, N-(3-Isobutyrylphenyl)-N-methyl-2,3-dihydro-1H-cyclopenta[b]quinolin-9-amine], the “Caspase Activity Ratio” value is recorded as 1.1.

Take `CCOC(=O)c1ccc(N(C)c2c3c(nc4ccccc24)CCC3)cc1` [Example 17, N-(4-(Ethoxycarbonyl)phenyl)-N-methyl-2,3-dihydro-1H-cyclopenta[b]quinolin-9-amine]: the “Caspase Activity Ratio” value came out at 9.3.

For the molecule `CC(=O)c1ccc(Nc2c3ccccc3nc3c2cnn3C)cc1` [Example 18, N-(4-Acetylphenyl)-1-methyl-1H-pyrazolo[3,4-b]quinolin-4-amine], the “Caspase Activity Ratio” value is listed as 8.5.

As to `CC(=O)c1ccc(Nc2c3ccccc3nc3c2c(C(C)C)nn3C)cc1` [Example 21, N-(4-Acetylphenyl)-1-methyl-3-isopropyl-1H-pyrazolo[3,4-b]quinolin-4-amine], the “Caspase Activity Ratio” value was found to be 1.1.

On to `CCc1ccc(Nc2c3ccccc3nc3c2c(C)nn3C)cc1` [Example 22, N-(4-Ethylphenyl)-1,3-dimethyl-1H-pyrazolo[3,4-b]quinolin-4-amine], for which the “Caspase Activity Ratio” value is on record as 1.1.

Consider `CC(=O)Nc1ccc(Nc2c3ccccc3nc3c2c(C)nn3C)cc1` [Example 32, N-(4-Acetamidophenyl)-1,3-dimethyl-1H-pyrazolo[3,4-b]quinolin-4-amine], for which the “Caspase Activity Ratio” value is 1.1.

In the case of `Cc1nn(C)c2nc3ccccc3c(Nc3ccc(S(C)(=O)=O)cc3)c12` [Example 34, 1,3-Dimethyl-N-(4-methylsulfonylphenyl)-1H-pyrazolo[3,4-b]quinolin-4-amine], the “Caspase Activity Ratio” value is given as 1.1.

Consider `Cc1nn(C)c2nc3ccccc3c(Nc3ccc([S+](C)[O-])cc3)c12` (stereo not drawn) [Example 39, 1,3-Dimethyl-N-(4-methylsulfinylphenyl)-1H-pyrazolo[3,4-b]quinolin-4-amine], for which the “Caspase Activity Ratio” value was found to be 1.1.

`Cc1nn(C)c2nc3ccccc3c(Nc3ccc(C(=O)C(C)C)cc3)c12` [Example 44, N-(4-Isobutyrylphenyl)-1,3-dimethyl-1H-pyrazolo[3,4-b]quinolin-4-amine]: the “Caspase Activity Ratio” value was found to be 4.3.

In the case of `Cc1nn(C)c2nc3ccccc3c(Nc3ccc(N)cc3)c12.Cl` [Example 45, N-(4-Aminophenyl)-1,3-dimethyl-1H-pyrazolo[3,4-b]quinolin-4-amine hydrochloride], the “Caspase Activity Ratio” value is listed as 1.1.

Consider `Cc1nn(C)c2nc3ccccc3c(Nc3ccc(N=[N+]=[N-])cc3)c12` [Example 46, N-(4-Azidophenyl)-1,3-dimethyl-1H-pyrazolo[3,4-b]quinolin-4-amine], for which the “Caspase Activity Ratio” value is recorded as 1.1.

As for `Cc1nn(C)c2nc3ccccc3c(Nc3ccc(C(=O)O)cc3)c12` [Example 47, N-(4-Carboxylphenyl)-1,3-dimethyl-1H-pyrazolo[3,4-b]quinolin-4-amine], the “Caspase Activity Ratio” value amounted to 1.1.

Consider `Cc1nn(C)c2nc3ccccc3c(Nc3ccc(C(=O)C(F)(F)F)cc3)c12` [Example 48, 1,3-Dimethyl-N-(4-(2,2,2-trifluoroacetyl)phenyl)-1H-pyrazolo[3,4-b]quinolin-4-amine], for which the “Caspase Activity Ratio” value is recorded as 1.1.

For the molecule `CCc1ccccc1Nc1c2c(nc3ccccc13)CCC2` [N-(2-Ethylphenyl)-2,3-dihydro-1H-cyclopenta[b]quinolin-9-amine], the “Caspase Activity Ratio” value is reported as 6.5.

On to `COc1ccccc1Nc1c2c(nc3ccccc13)CCC2` [N-(2-Methoxyphenyl)-2,3-dihydro-1H-cyclopenta[b]quinolin-9-amine], for which the “Caspase Activity Ratio” value was found to be 7.5.

Regarding `COC(=O)c1cccc(Nc2c3c(nc4ccccc24)CCC3)c1` [N-(3-(Methoxycarbonyl)phenyl)-2,3-dihydro-1H-cyclopenta[b]quinolin-9-amine], the “Caspase Activity Ratio” value is 5.6.

Take `CC(=O)c1cccc(Nc2c3c(nc4ccccc24)CCC3)c1` [N-(3-Acetylphenyl)-2,3-dihydro-1H-cyclopenta[b]quinolin-9-amine]: the “Caspase Activity Ratio” value amounted to 8.8.

In the case of `Cc1ccc2nc3c(c(Nc4cccc(O)c4)c2c1)CCC3` [N-(3-Hydroxyphenyl)-7-methyl-2,3-dihydro-1H-cyclopenta[b]quinolin-9-amine], the “Caspase Activity Ratio” value is 3.7.

Take `CCOC(=O)c1ccc(Nc2c3c(nc4ccccc24)CCC3)cc1` [N-(4-(Ethoxycarbonyl)phenyl)-2,3-dihydro-1H-cyclopenta[b]quinolin-9-amine]: the “Caspase Activity Ratio” value is listed as 9.5.

Take `COC(=O)c1ccc(Nc2c3c(nc4ccccc24)CCC3)cc1` [N-(4-(Methoxycarbonyl)phenyl)-2,3-dihydro-1H-cyclopenta[b]quinolin-9-amine]: the “Caspase Activity Ratio” value amounted to 4.8.

Take `CC(=O)c1ccc(Nc2c3ccccc3nc3c2c(C)nn3C)cc1` [N-(4-Acetylphenyl)-1,3-dimethyl-1H-pyrazolo[3,4-b]quinolin-4-amine]: the “Caspase Activity Ratio” value turned out to be 4.2.

The assay is the same for the next values; noted with them: Homo sapiens, T47D, 24 h incubation, sigmoidal dose-response calculation, read-out: Caspase Potency EC50.
Regarding `CC(=O)c1cccc(Nc2c3ccccc3nc3c2c(C)nn3C)c1` [Example 5, N-(3-Acetylphenyl)-1,3-dimethyl-1H-pyrazolo[3,4-b]quinolin-4-amine], the half-maximal effective concentration (EC50) was > 10 µM.

Turning to `Cc1nn(C)c2nc3ccccc3c(Nc3ccc(C(N)=O)cc3)c12` [Example 6, N-(4-Carbamoylphenyl)-1,3-dimethyl-1H-pyrazolo[3,4-b]quinolin-4-amine], the EC50 is > 10 µM.

In the case of `COc1ccc(Nc2c3ccccc3nc3c2c(C)nn3C)cn1` [Example 7, 1,3-Dimethyl-N-(6-methoxypyridin-3-yl)-1H-pyrazolo[3,4-b]quinolin-4-amine], the EC50 is > 10 µM.

As for `COc1cccc(Nc2c3ccccc3nc3c2c(C)nn3C)c1` [Example 8, 1,3-Dimethyl-N-(3-methoxyphenyl)-1H-pyrazolo[3,4-b]quinolin-4-amine], the EC50 was 5.83 µM.

Turning to `COc1ccc(Sc2c3ccccc3nc3c2c(C)nn3C)cc1` [Example 12, 4-(4-Methoxyphenylthio)-1,3-dimethyl-1H-pyrazolo[3,4-b]quinoline], the EC50 is 4.23 µM.

Consider `CC(=O)c1ccc(Oc2c3ccccc3nc3c2c(C)nn3C)cc1` [Example 13, 4-(4-Acetylphenoxy)-1,3-dimethyl-1H-pyrazolo[3,4-b]quinoline], for which the half-maximal effective concentration (EC50) is 4.32 µM.

Turning to `CC(C)C(=O)c1cccc(N(C)c2c3c(nc4ccccc24)CCC3)c1` [Example 16, N-(3-Isobutyrylphenyl)-N-methyl-2,3-dihydro-1H-cyclopenta[b]quinolin-9-amine], the EC50 was > 10 µM.

Consider `CCOC(=O)c1ccc(N(C)c2c3c(nc4ccccc24)CCC3)cc1` [Example 17, N-(4-(Ethoxycarbonyl)phenyl)-N-methyl-2,3-dihydro-1H-cyclopenta[b]quinolin-9-amine], for which the EC50 was 5.12 µM.

`CC(=O)c1ccc(Nc2c3ccccc3nc3c2cnn3C)cc1` [Example 18, N-(4-Acetylphenyl)-1-methyl-1H-pyrazolo[3,4-b]quinolin-4-amine]: the EC50 was 0.841 µM.

Take `CC(=O)c1ccc(Nc2c3ccccc3nc3c2c(C(C)C)nn3C)cc1` [Example 21, N-(4-Acetylphenyl)-1-methyl-3-isopropyl-1H-pyrazolo[3,4-b]quinolin-4-amine]: the EC50 was > 10 µM.

Consider `CCc1ccc(Nc2c3ccccc3nc3c2c(C)nn3C)cc1` [Example 22, N-(4-Ethylphenyl)-1,3-dimethyl-1H-pyrazolo[3,4-b]quinolin-4-amine], for which the EC50 is > 10 µM.

For the molecule `CC(=O)Nc1ccc(Nc2c3ccccc3nc3c2c(C)nn3C)cc1` [Example 32, N-(4-Acetamidophenyl)-1,3-dimethyl-1H-pyrazolo[3,4-b]quinolin-4-amine], the EC50 was > 10 µM.

For the molecule `Cc1nn(C)c2nc3ccccc3c(Nc3ccc(S(C)(=O)=O)cc3)c12` [Example 34, 1,3-Dimethyl-N-(4-methylsulfonylphenyl)-1H-pyrazolo[3,4-b]quinolin-4-amine], the EC50 is > 10 µM.

Consider `Cc1nn(C)c2nc3ccccc3c(Nc3ccc([S+](C)[O-])cc3)c12` (stereo not drawn) [Example 39, 1,3-Dimethyl-N-(4-methylsulfinylphenyl)-1H-pyrazolo[3,4-b]quinolin-4-amine], for which the EC50 was > 10 µM.

`Cc1nn(C)c2nc3ccccc3c(Nc3ccc(C(=O)C(C)C)cc3)c12` [Example 44, N-(4-Isobutyrylphenyl)-1,3-dimethyl-1H-pyrazolo[3,4-b]quinolin-4-amine]: the EC50 was 0.248 µM.

Regarding `Cc1nn(C)c2nc3ccccc3c(Nc3ccc(N)cc3)c12.Cl` [Example 45, N-(4-Aminophenyl)-1,3-dimethyl-1H-pyrazolo[3,4-b]quinolin-4-amine hydrochloride], the EC50 is > 10 µM.

Take `Cc1nn(C)c2nc3ccccc3c(Nc3ccc(N=[N+]=[N-])cc3)c12` [Example 46, N-(4-Azidophenyl)-1,3-dimethyl-1H-pyrazolo[3,4-b]quinolin-4-amine]: the EC50 was > 10 µM.

In the case of `Cc1nn(C)c2nc3ccccc3c(Nc3ccc(C(=O)O)cc3)c12` [Example 47, N-(4-Carboxylphenyl)-1,3-dimethyl-1H-pyrazolo[3,4-b]quinolin-4-amine], the half-maximal effective concentration (EC50) is > 10 µM.

Regarding `Cc1nn(C)c2nc3ccccc3c(Nc3ccc(C(=O)C(F)(F)F)cc3)c12` [Example 48, 1,3-Dimethyl-N-(4-(2,2,2-trifluoroacetyl)phenyl)-1H-pyrazolo[3,4-b]quinolin-4-amine], the EC50 was > 10 µM.

Turning to `CCc1ccccc1Nc1c2c(nc3ccccc13)CCC2` [N-(2-Ethylphenyl)-2,3-dihydro-1H-cyclopenta[b]quinolin-9-amine], the EC50 is 2.96 µM.

As to `COc1ccccc1Nc1c2c(nc3ccccc13)CCC2` [N-(2-Methoxyphenyl)-2,3-dihydro-1H-cyclopenta[b]quinolin-9-amine], the EC50 is 2.45 µM.

Consider `COC(=O)c1cccc(Nc2c3c(nc4ccccc24)CCC3)c1` [N-(3-(Methoxycarbonyl)phenyl)-2,3-dihydro-1H-cyclopenta[b]quinolin-9-amine], for which the EC50 was 3.04 µM.

For the molecule `CC(=O)c1cccc(Nc2c3c(nc4ccccc24)CCC3)c1` [N-(3-Acetylphenyl)-2,3-dihydro-1H-cyclopenta[b]quinolin-9-amine], the EC50 was 0.304 µM.

On to `Cc1ccc2nc3c(c(Nc4cccc(O)c4)c2c1)CCC3` [N-(3-Hydroxyphenyl)-7-methyl-2,3-dihydro-1H-cyclopenta[b]quinolin-9-amine], for which the EC50 was 5.53 µM.

`CCOC(=O)c1ccc(Nc2c3c(nc4ccccc24)CCC3)cc1` [N-(4-(Ethoxycarbonyl)phenyl)-2,3-dihydro-1H-cyclopenta[b]quinolin-9-amine]: the EC50 is 1.18 µM.

Turning to `COC(=O)c1ccc(Nc2c3c(nc4ccccc24)CCC3)cc1` [N-(4-(Methoxycarbonyl)phenyl)-2,3-dihydro-1H-cyclopenta[b]quinolin-9-amine], the EC50 was 0.34 µM.

As for `CC(=O)c1ccc(Nc2c3ccccc3nc3c2c(C)nn3C)cc1` [N-(4-Acetylphenyl)-1,3-dimethyl-1H-pyrazolo[3,4-b]quinolin-4-amine], the EC50 was 0.314 µM.

These data come from patent US20070253957A1, “Substituted N-Aryl-1H-Pyrazolo[3,4-B]Quinolin-4-Amines and Analogs as Activators of Caspases and Inducers of Apoptosis” (Cytovia, Inc., priority 2004, published 2007).
